{
  "source": "patent US20150224129A1",
  "about": "(priority 2012, published 2015)",
  "key": {"[1]": {"tested_on": "S. pneumoniae", "details": "exogenous activation of lung iNKT cells; high dose of bacteria; no previous influenza; cited from earlier work"}, "[2]": {"tested_on": "S. pneumoniae serotype 1", "set-up": "species or system mice", "details": "mouse, in vivo"}, "[3]": {"tested_on": "iNKT cells", "test": "Analysis of lung iNKT cell activation (intracellular IFN-γ, flow cytometry)", "format": "in vivo, mice", "details": "lung iNKT cells of IAV-experienced animals (day 7 post-IAV) compared with naïve animals; i.n. administration"}},
  "data": [
    {"smiles": "CCCCCCCCCCCCCCCCCCCCCCCCCC(=O)N[C@@H](CO[C@H]1O[C@H](CO)[C@H](O)[C@H](O)[C@H]1O)[C@H](O)[C@H](O)CCCCCCCCCCCCCC", "note": "[α-GalCer, α-galactosylceramide]", "values": [
      {"measurement": "clearance of S. pneumoniae", "setting": "[1]", "value": "leads to the clearance of S. pneumoniae"},
      {"measurement": "protection against S. pneumoniae challenge, as assessed by the enhanced survival rate", "setting": "[2]", "value": "~70", "unit": "%"},
      {"measurement": "iNKT cell activation (IFN-γ production) in response to α-GalCer", "setting": "[3]", "value": "leads to iNKT cell activation"}
    ]}
  ]
}
